Results from article PMC9284491 (Nature Communications, 2022).

Assay: Treatment-emergent adverse events (MedDRA, NCI-CTCAE v4.03), safety populations
Assay type: in vivo, human
Experimental: Overall safety in Parts A and B was assessed by tabulating TEAEs, coded using the Medical Dictionary for Regulatory Activities (MedDRA) version 22.1, and graded according to NCI-CTCAE v4.03 criteria. TEAEs were classified as related or unrelated to amcenestrant therapy based upon the local investigating physician’s clinical judgment. The safety population included all patients exposed to at least one dose of the study treatment. Results were analyzed using descriptive statistics.

O=C(O)c1ccc2c(c1)CCCC(c1ccc(Cl)cc1Cl)=C2c1ccc(O[C@H]2CCN(CCCF)C2)cc1 [amcenestrant, 6-(2,4-Dichlorophenyl)−5-[4-[(3S)−1-(3-fluoropropyl)pyrrolidin-3-yl]oxyphenyl]−8,9-dihydro-7H-benzo[7]annulene-2-carboxylic acid]
TEAE diarrhea (300 mg BID, 6 participants): 3 n
participants with at least 1 TEAE regardless of relationship (300 mg BID, 6 participants): 6 participants
TEAE leading to treatment discontinuation (Part A): No TEAE led to treatment discontinuation
treatment-related TEAE asthenia, patients (Part A (n = 16)): 18.8%
treatment-related TEAE constipation, patients (Part A (n = 16)): 18.8%
treatment-related TEAE decreased appetite, patients (Part A (n = 16)): 18.8%
treatment-related TEAE diarrhea, patients (Part A (n = 16)): 25.0%
treatment-related TEAE hot flush, patients (Part A (n = 16)): 31.3%
treatment-related TEAE nausea, patients (Part A (n = 16)): 25.0%
treatment-related TEAE night sweats, patients (Part A (n = 16)): 18.8%
Any TEAE, TEAEs, All grades (Part A, 20-600 mg QD (N = 16)): 16 (100) n (%)
Any TEAE, TEAEs, Grade 1 (Part A, 20-600 mg QD (N = 16)): 5 (31.3) n (%)
Any TEAE, TEAEs, Grade 2 (Part A, 20-600 mg QD (N = 16)): 7 (43.8) n (%)
Any TEAE, TEAEs, Grade ≥3 (Part A, 20-600 mg QD (N = 16)): 4 (25.0) n (%)
Any TEAE, Treatment-related TEAEs, All Grades (Part A, 20-600 mg QD (N = 16)): 13 (81.3) n (%)
Any TEAE, Treatment-related TEAEs, Grade 1 (Part A, 20-600 mg QD (N = 16)): 10 (62.5) n (%)
Any TEAE, Treatment-related TEAEs, Grade 2 (Part A, 20-600 mg QD (N = 16)): 3 (18.8) n (%)
Any TEAE, Treatment-related TEAEs, Grade ≥3 (Part A, 20-600 mg QD (N = 16)): 0 n (%)
Arthralgia, TEAEs, All grades (Part A, 20-600 mg QD (N = 16)): 5 (31.3) n (%)
Arthralgia, TEAEs, Grade 1 (Part A, 20-600 mg QD (N = 16)): 2 (12.5) n (%)
Arthralgia, TEAEs, Grade 2 (Part A, 20-600 mg QD (N = 16)): 3 (18.8) n (%)
Arthralgia, TEAEs, Grade ≥3 (Part A, 20-600 mg QD (N = 16)): 0 n (%)
Arthralgia, Treatment-related TEAEs, All Grades (Part A, 20-600 mg QD (N = 16)): 2 (12.5) n (%)
Arthralgia, Treatment-related TEAEs, Grade 1 (Part A, 20-600 mg QD (N = 16)): 1 (6.3) n (%)
Arthralgia, Treatment-related TEAEs, Grade 2 (Part A, 20-600 mg QD (N = 16)): 1 (6.3) n (%)
Arthralgia, Treatment-related TEAEs, Grade ≥3 (Part A, 20-600 mg QD (N = 16)): 0 n (%)
Asthenia, TEAEs, All grades (Part A, 20-600 mg QD (N = 16)): 4 (25.0) n (%)
Asthenia, TEAEs, Grade 1 (Part A, 20-600 mg QD (N = 16)): 2 (12.5) n (%)
Asthenia, TEAEs, Grade 2 (Part A, 20-600 mg QD (N = 16)): 2 (12.5) n (%)
Asthenia, TEAEs, Grade ≥3 (Part A, 20-600 mg QD (N = 16)): 0 n (%)
Asthenia, Treatment-related TEAEs, All Grades (Part A, 20-600 mg QD (N = 16)): 3 (18.8) n (%)
Asthenia, Treatment-related TEAEs, Grade 1 (Part A, 20-600 mg QD (N = 16)): 3 (18.8) n (%)
Asthenia, Treatment-related TEAEs, Grade 2 (Part A, 20-600 mg QD (N = 16)): 0 n (%)
Asthenia, Treatment-related TEAEs, Grade ≥3 (Part A, 20-600 mg QD (N = 16)): 0 n (%)
Back pain, TEAEs, All grades (Part A, 20-600 mg QD (N = 16)): 3 (18.8) n (%)
Back pain, TEAEs, Grade 1 (Part A, 20-600 mg QD (N = 16)): 2 (12.5) n (%)
Back pain, TEAEs, Grade 2 (Part A, 20-600 mg QD (N = 16)): 0 n (%)
Back pain, TEAEs, Grade ≥3 (Part A, 20-600 mg QD (N = 16)): 1 (6.3) n (%)
Back pain, Treatment-related TEAEs, All Grades (Part A, 20-600 mg QD (N = 16)): 1 (6.3) n (%)
Back pain, Treatment-related TEAEs, Grade 1 (Part A, 20-600 mg QD (N = 16)): 1 (6.3) n (%)
Back pain, Treatment-related TEAEs, Grade 2 (Part A, 20-600 mg QD (N = 16)): 0 n (%)
Back pain, Treatment-related TEAEs, Grade ≥3 (Part A, 20-600 mg QD (N = 16)): 0 n (%)
Constipation, TEAEs, All grades (Part A, 20-600 mg QD (N = 16)): 6 (37.5) n (%)
Constipation, TEAEs, Grade 1 (Part A, 20-600 mg QD (N = 16)): 5 (31.3) n (%)
Constipation, TEAEs, Grade 2 (Part A, 20-600 mg QD (N = 16)): 1 (6.3) n (%)
Constipation, TEAEs, Grade ≥3 (Part A, 20-600 mg QD (N = 16)): 0 n (%)
Constipation, Treatment-related TEAEs, All Grades (Part A, 20-600 mg QD (N = 16)): 3 (18.8) n (%)
Constipation, Treatment-related TEAEs, Grade 1 (Part A, 20-600 mg QD (N = 16)): 3 (18.8) n (%)
Constipation, Treatment-related TEAEs, Grade 2 (Part A, 20-600 mg QD (N = 16)): 0 n (%)
Constipation, Treatment-related TEAEs, Grade ≥3 (Part A, 20-600 mg QD (N = 16)): 0 n (%)
Decreased appetite, TEAEs, All grades (Part A, 20-600 mg QD (N = 16)): 6 (37.5) n (%)
Decreased appetite, TEAEs, Grade 1 (Part A, 20-600 mg QD (N = 16)): 6 (37.5) n (%)
Decreased appetite, TEAEs, Grade 2 (Part A, 20-600 mg QD (N = 16)): 0 n (%)
Decreased appetite, TEAEs, Grade ≥3 (Part A, 20-600 mg QD (N = 16)): 0 n (%)
Decreased appetite, Treatment-related TEAEs, All Grades (Part A, 20-600 mg QD (N = 16)): 3 (18.8) n (%)
Decreased appetite, Treatment-related TEAEs, Grade 1 (Part A, 20-600 mg QD (N = 16)): 3 (18.8) n (%)
Decreased appetite, Treatment-related TEAEs, Grade 2 (Part A, 20-600 mg QD (N = 16)): 0 n (%)
Decreased appetite, Treatment-related TEAEs, Grade ≥3 (Part A, 20-600 mg QD (N = 16)): 0 n (%)
Diarrhea, TEAEs, All grades (Part A, 20-600 mg QD (N = 16)): 6 (37.5) n (%)
Diarrhea, TEAEs, Grade 1 (Part A, 20-600 mg QD (N = 16)): 5 (31.3) n (%)
Diarrhea, TEAEs, Grade 2 (Part A, 20-600 mg QD (N = 16)): 1 (6.3) n (%)
Diarrhea, TEAEs, Grade ≥3 (Part A, 20-600 mg QD (N = 16)): 0 n (%)
Diarrhea, Treatment-related TEAEs, All Grades (Part A, 20-600 mg QD (N = 16)): 4 (25.0) n (%)
Diarrhea, Treatment-related TEAEs, Grade 1 (Part A, 20-600 mg QD (N = 16)): 3 (18.8) n (%)
Diarrhea, Treatment-related TEAEs, Grade 2 (Part A, 20-600 mg QD (N = 16)): 1 (6.3) n (%)
Diarrhea, Treatment-related TEAEs, Grade ≥3 (Part A, 20-600 mg QD (N = 16)): 0 n (%)
Dyspnea, TEAEs, All grades (Part A, 20-600 mg QD (N = 16)): 4 (25.0) n (%)
Dyspnea, TEAEs, Grade 1 (Part A, 20-600 mg QD (N = 16)): 2 (12.5) n (%)
Dyspnea, TEAEs, Grade 2 (Part A, 20-600 mg QD (N = 16)): 1 (6.3) n (%)
Dyspnea, TEAEs, Grade ≥3 (Part A, 20-600 mg QD (N = 16)): 1 (6.3) n (%)
Dyspnea, Treatment-related TEAEs, All Grades (Part A, 20-600 mg QD (N = 16)): 1 (6.3) n (%)
Dyspnea, Treatment-related TEAEs, Grade 1 (Part A, 20-600 mg QD (N = 16)): 1 (6.3) n (%)
Dyspnea, Treatment-related TEAEs, Grade 2 (Part A, 20-600 mg QD (N = 16)): 0 n (%)
Dyspnea, Treatment-related TEAEs, Grade ≥3 (Part A, 20-600 mg QD (N = 16)): 0 n (%)
Fatigue, TEAEs, All grades (Part A, 20-600 mg QD (N = 16)): 4 (25.0) n (%)
Fatigue, TEAEs, Grade 1 (Part A, 20-600 mg QD (N = 16)): 3 (18.8) n (%)
Fatigue, TEAEs, Grade 2 (Part A, 20-600 mg QD (N = 16)): 0 n (%)
Fatigue, TEAEs, Grade ≥3 (Part A, 20-600 mg QD (N = 16)): 1 (6.3) n (%)
Fatigue, Treatment-related TEAEs, All Grades (Part A, 20-600 mg QD (N = 16)): 2 (12.5) n (%)
Fatigue, Treatment-related TEAEs, Grade 1 (Part A, 20-600 mg QD (N = 16)): 2 (12.5) n (%)
Fatigue, Treatment-related TEAEs, Grade 2 (Part A, 20-600 mg QD (N = 16)): 0 n (%)
Fatigue, Treatment-related TEAEs, Grade ≥3 (Part A, 20-600 mg QD (N = 16)): 0 n (%)
Hot flush, TEAEs, All grades (Part A, 20-600 mg QD (N = 16)): 6 (37.5) n (%)
Hot flush, TEAEs, Grade 1 (Part A, 20-600 mg QD (N = 16)): 6 (37.5) n (%)
Hot flush, TEAEs, Grade 2 (Part A, 20-600 mg QD (N = 16)): 0 n (%)
Hot flush, TEAEs, Grade ≥3 (Part A, 20-600 mg QD (N = 16)): 0 n (%)
Hot flush, Treatment-related TEAEs, All Grades (Part A, 20-600 mg QD (N = 16)): 5 (31.3) n (%)
Hot flush, Treatment-related TEAEs, Grade 1 (Part A, 20-600 mg QD (N = 16)): 5 (31.3) n (%)
Hot flush, Treatment-related TEAEs, Grade 2 (Part A, 20-600 mg QD (N = 16)): 0 n (%)
Hot flush, Treatment-related TEAEs, Grade ≥3 (Part A, 20-600 mg QD (N = 16)): 0 n (%)
Hypoesthesia, TEAEs, All grades (Part A, 20-600 mg QD (N = 16)): 3 (18.8) n (%)
Hypoesthesia, TEAEs, Grade 1 (Part A, 20-600 mg QD (N = 16)): 3 (18.8) n (%)
